Assay results reported in paper PMC11791199 (Scientific Reports, 2025).
Entries after “also recorded” stand apart in the source; their conditions may differ.

Legend:
ClpC1 NTD K85A mutant = ClpC1 NTD K85A mutant (Mycobacterium tuberculosis, UniProt P9WPC9, K85A); type: binding
ClpC1 NTD F80A mutant = ClpC1 NTD F80A mutant (Mycobacterium tuberculosis, UniProt P9WPC9, F80A); type: binding

What does the source list for `CC1=C[C@@H](/C=C(\Cl)c2ccc(C(=O)O)cc2)[C@]2(C(=O)O)C=C[C@@H](CCOC(=O)c3ccc(NCc4ccccc4)cc3)C[C@@H]2C1` [F5, (2R,4aR,5S,8aR)-2-(2-((4-(benzylamino)benzoyl)oxy)ethyl)-5-((Z)-2-(4-carboxyphenyl)-2-chlorovinyl)-7-methyl-1,5,8,8a-tetrahydronaphthalene-4a(2H)-carboxylic acid]?
binding by ITC (ClpC1 NTD K85A mutant): no binding could be observed; also recorded: no binding was observed; binding by ITC (ClpC1 NTD F80A mutant): no binding could be observed; also recorded: no binding was observed
